From the NIST ThermoML archive (doi:10.1021/je700406p)

Conditions: Liquid, Vibrating tube method

CC(C)(N)CO [2-amino-2-methylpropan-1-ol]
mass density [kg/m3]
Conditions | 313.06 K | 322.98 K | 332.91 K | 342.84 K | 352.79 K | 362.65 K
500 kPa | – | 922.7 | 914 | 905.4 | 896.8 | –
504 kPa | – | – | – | – | – | 888
1000 kPa | 931.4 | 922.8 | 914.4 | 905.7 | 897.2 | –
1002 kPa | – | – | – | – | – | 888.4
2000 kPa | 931.9 | 923.4 | 915 | 906.4 | 897.9 | 889
3000 kPa | 932.4 | 924 | 915.6 | 907 | 898.5 | 889.7
4000 kPa | 932.9 | 924.5 | 916.1 | 907.6 | – | 890.5
4001 kPa | – | – | – | – | 899.2 | –
5000 kPa | 933.5 | 925.1 | 916.7 | 908.3 | 899.9 | 891.2
6000 kPa | 933.9 | 925.7 | 917.3 | 908.9 | 900.5 | 891.8
7000 kPa | 934.5 | 926.2 | 918 | 909.5 | – | 892.5
7001 kPa | – | – | – | – | 901.2 | –
8000 kPa | 935 | 926.8 | 918.5 | – | 901.8 | –
8001 kPa | – | – | – | 910.1 | – | 893.2
9007 kPa | 935.5 | 927.4 | – | – | – | –
9009 kPa | – | – | 919.1 | 910.7 | 902.4 | –
9010 kPa | – | – | – | – | – | 893.9
10002 kPa | – | 927.8 | – | – | – | –
10003 kPa | 936 | – | 919.7 | 911.3 | 903.1 | 894.6
11000 kPa | 936.6 | 928.4 | – | – | – | –
11001 kPa | – | – | – | 911.9 | 903.7 | 895.2
11002 kPa | – | – | 920.2 | – | – | –
12000 kPa | 937 | 928.9 | – | 912.5 | 904.3 | 895.8
12001 kPa | – | – | 920.8 | – | – | –
13000 kPa | 937.6 | 929.5 | 921.3 | 913.1 | – | –
13001 kPa | – | – | – | – | 904.9 | 896.5
14000 kPa | 938.1 | 930.1 | 921.9 | 913.6 | 905.5 | 897.1
15002 kPa | 938.6 | – | 922.4 | – | 906.1 | –
15003 kPa | – | 930.6 | – | 914.3 | – | 897.8
16000 kPa | 939.1 | – | – | – | – | –
16001 kPa | – | – | 923 | 914.8 | 906.7 | 898.4
16006 kPa | – | 931.1 | – | – | – | –
17000 kPa | – | – | – | – | – | 899.1
17001 kPa | 939.7 | 931.6 | 923.5 | 915.3 | 907.4 | –
18002 kPa | 940.2 | 932.1 | 924.1 | 915.9 | 907.9 | 899.7
18997 kPa | – | – | – | – | 908.5 | –
19000 kPa | 940.6 | 932.6 | 924.6 | 916.5 | – | 900.3
20029 kPa | 941.1 | – | – | – | – | –
20030 kPa | – | 933.2 | 925.2 | 917.1 | 909.1 | 901
21001 kPa | – | – | – | – | 909.7 | –
21002 kPa | – | – | 925.6 | – | – | –
21004 kPa | 941.7 | – | – | – | – | 901.6
21005 kPa | – | 933.7 | – | 917.6 | – | –
22004 kPa | 942.1 | 934.1 | 926.2 | 918.1 | 910.3 | 902.2
23000 kPa | – | – | 926.7 | 918.7 | 910.9 | 902.8
24003 kPa | – | – | – | – | – | 903.3
24004 kPa | 943.1 | 935.2 | 927.3 | 919.2 | 911.4 | –
